Biological target: (α4)2(β2)3 nAChR (A2B3, high affinity) (Rattus norvegicus, UniProt P09483+P12390, P09483:H144V/P09483:Q152F/P09483:T154L)
Experiment: two-electrode voltage clamp, Xenopus oocytes, agonist dose-response
Format: cell-based
Details: -60 mV, ND96 Ca2+ free, pH 7.5

(α4)2(β2)3 nAChR (A2B3, high affinity), sequence (P12390 25-500): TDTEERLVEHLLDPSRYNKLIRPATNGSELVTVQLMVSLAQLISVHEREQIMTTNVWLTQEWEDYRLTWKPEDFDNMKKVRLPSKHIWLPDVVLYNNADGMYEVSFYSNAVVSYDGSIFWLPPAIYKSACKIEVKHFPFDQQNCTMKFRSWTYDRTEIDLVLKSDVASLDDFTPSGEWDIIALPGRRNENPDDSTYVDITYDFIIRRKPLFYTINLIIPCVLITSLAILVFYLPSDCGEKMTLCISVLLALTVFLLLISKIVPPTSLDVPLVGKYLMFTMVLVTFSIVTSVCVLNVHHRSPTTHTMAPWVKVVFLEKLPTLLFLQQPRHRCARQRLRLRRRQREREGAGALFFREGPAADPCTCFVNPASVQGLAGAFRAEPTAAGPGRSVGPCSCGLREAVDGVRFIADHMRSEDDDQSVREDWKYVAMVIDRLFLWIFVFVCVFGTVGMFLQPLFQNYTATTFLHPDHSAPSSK
(α4)2(β2)3 nAChR (A2B3, high affinity), sequence (P09483 31-630 H144V/Q152F/T154L): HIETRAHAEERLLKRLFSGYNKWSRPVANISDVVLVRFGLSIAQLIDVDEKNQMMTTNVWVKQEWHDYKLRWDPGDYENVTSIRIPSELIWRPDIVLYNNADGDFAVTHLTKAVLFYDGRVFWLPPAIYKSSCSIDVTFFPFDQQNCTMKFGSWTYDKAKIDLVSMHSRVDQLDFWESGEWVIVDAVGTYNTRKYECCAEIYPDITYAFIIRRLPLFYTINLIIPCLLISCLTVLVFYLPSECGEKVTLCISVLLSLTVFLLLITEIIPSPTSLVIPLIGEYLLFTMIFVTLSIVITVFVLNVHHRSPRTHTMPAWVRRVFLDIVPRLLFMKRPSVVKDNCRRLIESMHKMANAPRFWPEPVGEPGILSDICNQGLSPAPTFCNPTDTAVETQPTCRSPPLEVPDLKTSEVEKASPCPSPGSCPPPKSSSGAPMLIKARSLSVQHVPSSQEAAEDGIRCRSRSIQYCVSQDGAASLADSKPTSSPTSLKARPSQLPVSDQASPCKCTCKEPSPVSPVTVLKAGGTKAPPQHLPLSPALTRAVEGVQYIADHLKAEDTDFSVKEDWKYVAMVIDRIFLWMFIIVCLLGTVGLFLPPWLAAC

Question: With `OCCCCC#Cc1cncc(OC[C@@H]2CCN2)c1` [sazetidine-A] as the compound, how does the EC50 read?
Answer: The EC50 was 4.8 ± 0.3 nM.

Source: paper PMC4033646 (ACS Chemical Biology, 2014)
